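Compound exposure: 48 hours, 5 concentrations, 96-well plates. At the TGI there is no net growth.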 Where a SMILES comes first, the peptide text is derived from it. [ ]: non-standard residue; d: D form. The star is where a group is joined. ξ: configuration not given here. ξPhe(4-NO2) = NC(Cc1ccc([N+](=O)[O-])cc1)C(=O)O; Boc = CC(C)(C)OC(=O)*
What was measured:
Assay in all cases: NCI tumour cell line growth inhibition, 48 h
MCF7 breast = tested on: MCF7 breast
KM12 colon = tested on: KM12 colon
HL-60(TB) leukemia = tested on: HL-60(TB) leukemia
SW-620 colon = tested on: SW-620 colon
MDA-MB-231 breast = tested on: MDA-MB-231 breast
OVCAR-5 ovarian = tested on: OVCAR-5 ovarian
SNB-19 CNS = tested on: SNB-19 CNS
U251 CNS = tested on: U251 CNS
SK-MEL-28 melanoma = tested on: SK-MEL-28 melanoma
IGROV1 ovarian = tested on: IGROV1 ovarian
TK-10 renal = tested on: TK-10 renal
UACC-257 melanoma = tested on: UACC-257 melanoma
SF-539 CNS = tested on: SF-539 CNS
HOP-92 NSCLC = tested on: HOP-92 NSCLC

Structure (SMILES)	TGI (MCF7 breast) [µM]	TGI (KM12 colon) [µM]	TGI (HL-60(TB) leukemia) [µM]	TGI (SW-620 colon) [µM]	TGI (MDA-MB-231 breast) [µM]	TGI (OVCAR-5 ovarian) [µM]	TGI (SNB-19 CNS) [µM]	TGI (U251 CNS) [µM]	TGI (SK-MEL-28 melanoma) [µM]	TGI (IGROV1 ovarian) [µM]	TGI (TK-10 renal) [µM]	TGI (UACC-257 melanoma) [µM]	TGI (SF-539 CNS) [µM]	TGI (HOP-92 NSCLC) [µM]
Cc1ccc2c(=O)c(C(=O)NNC(=S)NC3CCCCC3)c[nH]c2n1	> 100	> 100	> 100	> 100	> 100	> 100	> 100	> 100	> 100	> 100	> 100	> 100		
CC(=O)OCCCCn1cnc2c(Cl)nc(Nc3ccccc3)nc21	> 100	> 100	> 100	> 100	> 100	> 100		> 100	> 100	> 100	> 100	> 100	> 100	
CCNC(=O)CNC(=O)C(Cc1ccc([N+](=O)[O-])cc1)NC(=O)OC(C)(C)C (centres undefined) (Boc-[ξPhe(4-NO2)]-Gly-NHEt)	> 100	> 100	> 100	> 100	> 100	> 100	> 100	> 100	> 100	> 100	> 100			> 100
O=C(NNC(=O)c1c(Cl)c(Cl)c(Cl)c(Cl)c1-c1nc2ccccc2[nH]1)c1ccc(Cl)cc1	> 100	> 100	> 100	> 100		> 100	> 100		> 100	> 100			> 100	84.7
C=CCN(c1cc(OC)c2c(c1[N+](=O)[O-])C(C)(SC)C(=O)N2)S(C)(=O)=O (centres undefined)	> 100	> 100		> 100	> 100		> 100	> 100	> 100	> 100	> 100	> 100	> 100	> 100
OC1(C2(c3ccc(Cl)cc3)CCCC2)c2ccccc2C2=NCCN21 (centres undefined)	32.7	36.3	33.2	48.6	29.6	29.5	30.5	28.2	31	26.8	28.9	29.4		28.6
Cc1ccc(N2C3=C(CC4=C2CC(C)(C)CC4=O)C(=O)CC(C)(C)C3)cc1	> 100	> 100	> 100	> 100	> 100	> 100	> 100	> 100	> 100	> 100	> 100	> 100	> 100	
C/C(=N\Nc1nc2ccccc2o1)c1cc2ccccc2cn1	> 33.7	7.85		> 100	8.75	16.4	20.5	> 100	48.6					11.1
CC(c1ccccc1)C(O)S(=O)(=O)O (centres undefined)		> 100		> 100		> 100	> 100	> 100	> 100	> 100	> 100	> 100	> 100	> 100

From PubChem BioAssay (NCI)
